# According to paper PMC8308784, “Novel Purine Chemotypes with Activity against Plasmodium falciparum and Trypanosoma cruzi” (Pharmaceuticals, 2021):
# Several values for one entry are separate records, joined by “and”; a condition that tells them apart may be missing. Identical values can stand only once. Like-named read-outs stand apart in the source and are kept apart here.
# Tests used:
# [1] = test system: T. cruzi Tulahuen strain expressing β-galactosidase; experiment: anti-T. cruzi dose-response growth inhibition assay (Vero cells plus trypomastigotes, CPRG readout); format: cell-based; details: Vero cells plus trypomastigotes, MOI 1, four days, mean (SD), read-out: T. cruzi IC50 a (anti-T. cruzi assay)
# Experimental: T. cruzi parasites from the Tulahuen strain (discrete typing unit (DTU) VI) expressing β-galactosidase were maintained in culture by the infection of LLC-MK2 cells in DMEM supplemented with 2% FBS and 1% penicillin–streptomycin–glutamine (PSG), as described in [52]. When free-swimming trypomastigotes were released to the culture medium, they were centrifuged for 7 min at 2500 rpm and allowed to swim out of the pellet. Trypomastigotes were used to maintain the parasite cycle, or for the performance of the antiparasitic assays.
# T. cruzi growth was primarily analyzed under three different concentrations ([…]) of the 81 compounds. Conditions were tested in triplicate for every concentration. Z-values varied between 0.81 and 0.92 in the different plates analyzed. Selected compounds (34.6% potential hit rate) were further analyzed via standard growth inhibition assays. The Z-values of dose–response assays correlated with those previously reported. For both assays, Vero cells and trypomastigotes from the Tulahuen T. cruzi strain expressing β-galactosidase were harvested, centrifuged, and resuspended in DMEM without phenol red supplemented with 1% PSG, 2% FBS, 1 mM sodium pyruvate, and 25 mM HEPES. Vero cells and trypomastigotes were counted, diluted at a concentration of 1 × 10^6 cells/mL each, and mixed 1:1 (v/v). Then, 100 μL of that mixture was added per well to the plates already containing the compounds. Each well contained 50,000 host cells and 50,000 parasites, i.e., multiplicity of infection (MOI) = 1. BNZ was used as control of maximal drug growth inhibition in each round, whereas each plate contained its own negative control (maximum parasite growth; Vero cells plus parasites without drugs) and positive control (minimum parasite growth; trypomastigote forms alone marking an enzymatic zero time or baseline galactosidase activity). After four days at 37 °C, 50 µL of a PBS solution containing 0.25% NP40 and 500 µM chlorophenol red-β-D-galactopyranoside (CPRG) substrate were added per well [32]. Plates were incubated at 37 °C for 4 h, and their absorbance read out at 590 nm using an Epoch Gene5 spectrophotometer.
# (§1) Absorbance values derived from the anti-T. cruzi assays and fluorescence values from the anti-P. falciparum and cell toxicity assays were normalized to the controls. In the primary screening at three fixed doses, the compounds’ inhibitory activity was expressed as a percentage of the negative control (100% parasitic growth). In dose–response assays, the compounds’ IC50 and TC50 values were determined with GraphPad Prism 7 software (version 7.00, 2016), using a non-linear regression analysis model defined by the following equation: Y=100 ÷(1+10^((LogIC50−X)×HillSlope))
# [2] = test system: Vero cells; experiment: Vero cell toxicity assay (alamarBlue); format: cell-based, green monkey; details: 4 days; minimum value of the 95% CI, except BNZ (mean (SD))
# Experimental: (§2) Human erythrocytes were purified from B+ Rh+ blood samples and maintained at 4 °C in incomplete RPMI medium. Vero (green monkey kidney epithelial cells), LLC-MK2 (Rhesus monkey kidney epithelial cells), and HepG2 (human liver epithelial cells) cultures were cultivated in DMEM supplemented with 1% penicillin–streptomycin (PS) and 10% heat-inactivated fetal bovine serum (FBS) at 37 °C, 5% CO2, and >95% humidity, as described in [31]. HepG2 cells were also supplemented with 10% non-essential amino acids. Vero and MK2 cells were passaged twice per week at 1:12 ratios, while HepG2 cells were passaged at a 1:8 ratio.
# (§3) Vero and HepG2 cells were detached, centrifuged, and resuspended in DMEM without phenol red. Cell viability was checked upon cell counting with trypan blue staining. Then, Vero and HepG2 cells were diluted at a concentration of 5 × 10^5 and 3.2 × 10^5 cells per mL, respectively, before adding 100 µL per well to the 96-well plate. Each run contained its own negative (untreated cells) and positive (medium alone) controls. Plates were incubated at 37 °C for 4 days in the case of Vero, or 2 in the case of HepG2 cells. Assay readout was made by adding 50 µL per well of a PBS solution containing 10% alamarBlue reagent (Thermo Fisher Scientific); then, plates were incubated for another 6 h at 37 °C, before recording the fluorescence intensity with a Tecan Infinite M Nano+ reader (excitation: 530 nm, emission: 590 nm).
# as §1
# [3] = test system: HepG2 cells; experiment: HepG2 cell toxicity assay (alamarBlue); format: cell-based, human; details: 2 days; minimum value of the 95% CI, except BNZ (mean (SD))
# Experimental: as §2, §3, §1
# [4] = test system: T. cruzi intracellular amastigotes; experiment: Antiamastigote growth inhibition assay; format: cell-based; details: intracellular amastigotes in Vero cells, mean (SD), read-out: T. cruzi IC50 b (antiamastigote assay)
# Experimental: Vero cells were seeded in T-175 flasks (5 × 10^6 cells per flask) in DMEM supplemented with 1% penicillin–streptomycin and 10% FBS, and cultured for 24 h. Then, cells were washed once with PBS, and free-swimming trypomastigotes (1 × 10^7 trypomastigotes per flask; MOI = 1) in assay medium were added and allowed 18 h to infect. After that, infected cell monolayers were washed with PBS and detached. Cells were counted and diluted to a concentration of 5 × 10^5 cells per mL, before adding 100 µL per well to test plates already containing the drugs dispensed as described above. In all cases, we included BNZ as control drug, and each plate contained its own negative (Vero cells and parasites) and positive (Vero cells) controls.
# as §1
# [5] = test system: P. falciparum 3D7; experiment: P. falciparum primary screening at three fixed concentrations; format: cell-based; details: average of at least three experiments
# Experimental: Apicomplexan parasite cultures were maintained at 3% hematocrit under an atmosphere of 37 °C in 93% N2, 5% CO2, and 2% O2, following standard methods. Synchronized cultures were obtained via 5% sorbitol lysis.
# […] Conditions were tested in triplicate for every concentration, and the test was repeated when the standard deviation was above 10% for any concentration. Z-values varied between 0.83 and 0.98 in the different plates analyzed. Selected compounds (12.3% potential hit rate) were further analyzed via standard growth inhibition assays, carried out as previously described in [54]. Briefly, parasitemia was adjusted to 1–1.3%, with >90% rings after sorbitol synchronization. Two hundred microliters of parasite culture were plated in 96-well microplates and incubated for 48 h at 37 °C in the presence of decreasing concentrations of the tested compounds, in triplicate. Parasitemia was determined by fluorescence-assisted cell sorting (FACS). Non-infected RBCs and samples containing parasitized RBCs (including controls with DMSO as carrier solvent) were diluted in PBS to a final concentration of ~1–10 × 10^6 cells/mL. The cell suspension was stained with SYTO 11 (0.5 mM stock in DMSO, Thermo Fisher Scientific, Waltham, MA, USA), to a final concentration of 0.5 μM. Samples were analyzed in a Becton Dickinson FACSCalibur. Sample excitation was carried out using a 488-nm, air-cooled argon-ion laser at a power of 15 mW, using forward and side scatter to gate the RBC population, and SYTO 11 green fluorescence (530 nm, FITC filter) was collected in a logarithmic scale. The single-cell population was selected on a forward–side scattergram, and the green fluorescence from this population was analyzed. Parasitemia was expressed as the number of parasitized cells per 100 erythrocytes.
# as §1
SMILES,"IC50 ([1]; Trypanosoma cruzi, TULAHUEN, 96 h)",Vero Cells TC50 [2],HepG2 Cells TC50 [3],IC50 ([4]; Trypanosoma cruzi),"Primary screening, parasite growth relative to the negative control ([5]; compound at 1 µM)","Primary screening, parasite growth relative to the negative control ([5]; compound at 10 µM)","Primary screening, parasite growth relative to the negative control ([5]; compound at 100 µM)",IC50 [1],IC50 [4]
"O=C(Cn1ccnc1[N+](=O)[O-])NCc1ccccc1 [BNZ, benznidazole, reference compound]",1.72 µM,209.5 (15.0) µM and 209.5 µM,255.3 (10.8) µM and 255.3 µM,1.82 µM,,,,,
CN1CCN(n2cnc3c(OCc4ccccc4)ncnc32)CC1 [Compound 29],,>1000 µM,>1000 µM,,100.58%,98.35%,63.21%,4.86 µM,157 µM
